Data from paper PMC6367941 (Journal of computer-aided molecular design, 2018).

Test: UV-metric pKa measurement with methanol cosolvent
Assay type: physicochemical
Conditions: Yasuda-Shedlovsky extrapolation to 0% methanol from psKa in ISA methanol:water mixtures, 25.0 ± 0.5 °C, ~150 mM KCl, mean ± SEM of three replicates

Row | SMILES | pKa1
1 | FC(F)(F)c1cccc(Nc2ncnc3ccccc23)c1 [SM02] | 5.03 ± 0.01
2 | COc1cccc(Nc2ncnc3ccccc23)c1.Cl [SM09] | 5.37 ± 0.01
